This passage reports TGI results from PubChem BioAssay (NCI).

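In this assay, cells in 96-well plates receive the compound at five concentrations for 48 hours. Endpoints are linearly interpolated between the surrounding concentrations. TGI: concentration producing complete growth inhibition.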

Holding throughout (assay): NCI tumour cell line growth inhibition, 48 h
Experiment [1] concerns OVCAR-4 ovarian.
The test system of experiment [2] is RPMI-8226 leukemia.
Experiment [3] relates to SK-MEL-5 melanoma.
The test system of experiment [4] is HCT-15 colon.
In experiment [5] the test system is DU-145 prostate.
In experiment [6] the test system is SR leukemia.
Experiment [7] concerns RXF 393 renal.
Experiment [8] concerns ACHN renal.
Experiment [9] concerns HT29 colon.
Experiment [10] deals with SF-268 CNS.
Experiment [11] has as its system EKVX NSCLC.
Experiment [12] deals with M14 melanoma.
For experiment [13], the system named is MCF7 breast.
Experiment [14] has as its system COLO 205 colon.
For experiment [15], the system named is A498 renal.
The subject of experiment [16] is SW-620 colon.
Experiment [17] relates to KM12 colon.
Experiment [18] relates to MDA-MB-435.
Experiment [19] concerns SNB-75 CNS.
Experiment [20] deals with NCI-H522 lung.

For the compound `COC1O[C@H]2[C@H]3[C@@H]1[C@@H](OS(=O)(=O)c1ccc(C)cc1)C(=O)N3C[C@H]2O` (stereo partly specified), the TGI in [1], in experiment [2], in [3], in experiment [4], in [5] and in experiment [6] was more than 100 µM each time. In addition, the TGI in experiment [7] is 81.7 µM; in [8], more than 100 µM; in experiment [9], more than 100 µM; in experiment [10], more than 100 µM; in experiment [11], more than 100 µM; in experiment [12] it was more than 100 µM. In addition, the TGI in experiment [13], in experiment [14], in experiment [15], in [16], in experiment [17] and in experiment [18] was more than 100 µM each time.
For the compound `CCC1C(=O)C(O)[C@H]2[C@@H]3C(O)CC4=CC(=O)CC[C@]4(C)[C@H]3CC[C@]12C` (stereo partly specified), the TGI in experiment [2], in experiment [3], in experiment [4], in experiment [5], in experiment [6] and in [8] was more than 50 µM in each case. Also, the TGI in experiment [9], in experiment [10], in experiment [11], in [12], in experiment [19] and in experiment [13] was more than 50 µM in each case. Further, the TGI in experiment [14], in [15], in experiment [16], in experiment [20], in experiment [17] and in [18] was more than 50 µM throughout.
`C#CCCCOc1ncccn1`: the TGI in experiment [1], in experiment [2], in experiment [3], in [5], in experiment [6] and in experiment [7] was more than 100 µM each time. Moreover, the TGI in experiment [8], in [9], in [10], in [11], in experiment [12] and in experiment [13] was more than 100 µM in each case. Besides, the TGI in [14], in [15], in [16], in [20], in experiment [17] and in [18] was more than 100 µM throughout.
As for `CC(C)=CCN1c2ccc(Cl)cc2NC(=O)CC1C` (stereo unspecified), the TGI in experiment [1] was 87.9 µM; in [2] it was 50.1 µM; in experiment [3], 32.2 µM; in experiment [4] it was more than 100 µM; in experiment [5] it was more than 100 µM; in [6], more than 100 µM. For the same compound, the TGI in experiment [7] is 76 µM; in [8], 58.3 µM; in experiment [9], 37.2 µM; in experiment [10], more than 100 µM; in experiment [11], 83.5 µM; in [12], 36.1 µM. The TGI is 45.6 µM in experiment [13]; 56.9 µM in experiment [14]; 49 µM in experiment [15]; more than 100 µM in experiment [16]; 47.4 µM in experiment [20]; 68.6 µM in experiment [17]. This compound yielded a TGI in experiment [18] of 41.1 µM.
On to `CCOC(=O)C(NCc1cccc(C(F)(F)F)c1)(NC(=O)CC)C(F)(F)F` (stereo unspecified), for which the TGI in [1], in experiment [2], in experiment [3], in experiment [4], in experiment [5] and in experiment [6] was more than 100 µM throughout. In addition, the TGI in experiment [7], in [8], in [9], in experiment [10], in [11] and in [12] was more than 100 µM each time. Besides, the TGI in experiment [19], in experiment [13], in experiment [14], in experiment [16], in experiment [20] and in experiment [17] was more than 100 µM throughout. The compound also registered a TGI in experiment [18] of more than 100 µM.
Turning to `O=S(=O)(c1ccccc1)C1(CCC2OCCO2)C=CC2(CC1)OCCO2` (stereo unspecified), the TGI in [1], in experiment [2], in experiment [3], in experiment [4], in experiment [5] and in experiment [6] was more than 100 µM each time. Besides, the TGI in experiment [8], in [9], in experiment [10], in [11], in experiment [12] and in experiment [19] was more than 100 µM throughout. In addition, the TGI in [13], in experiment [14], in [15], in [16] and in [18] was more than 100 µM in each case.
In the case of `COC(=O)CSC(=S)Nc1nnc(NC(=S)SCOC(C)=O)n1C(=S)SCC(=O)OC`, the TGI in [1], in experiment [2], in experiment [3], in [4], in [5] and in experiment [6] was more than 100 µM throughout. The TGI in experiment [7], in [8], in [9], in experiment [10], in experiment [11] and in [12] was more than 100 µM each time. Also, the TGI in experiment [13], in experiment [14], in experiment [15], in [16], in experiment [17] and in experiment [18] was more than 100 µM throughout.
Regarding `COc1cc(S(=O)(=O)Nc2nc(-c3ccc(N4C(=O)/C(=C/c5ccccc5[N+](=O)[O-])N=C4c4ccccc4)cc3)cs2)ccc1Cl`, the TGI in [1], in experiment [3], in experiment [4], in experiment [5], in experiment [6] and in experiment [7] was more than 100 µM throughout. For the same compound, the TGI in experiment [8], in [9], in [10], in experiment [12], in [19] and in experiment [13] was more than 100 µM each time. Also, the TGI in [14], in experiment [15], in experiment [16], in experiment [20], in experiment [17] and in [18] was more than 100 µM each time.
With `NS(=O)(=O)c1ccc(Nc2c3ccccc3nc3c(C(=O)NCCO)cccc23)cc1`, the TGI stood at 0.454 µM in [1]; 0.337 µM in experiment [2]; 0.221 µM in experiment [3]; 0.333 µM in [4]; 0.586 µM in experiment [5]; 0.0607 µM in experiment [6]. The TGI amounted to 0.237 µM in experiment [7]; 0.917 µM in experiment [8]; 0.302 µM in [9]; 0.303 µM in experiment [10]; 0.772 µM in [11]; 0.326 µM in [12]. Besides, the TGI turned out to be 0.176 µM in experiment [13]; 0.206 µM in experiment [14]; 0.229 µM in experiment [15]; 0.277 µM in experiment [16]; 0.272 µM in experiment [20]; 0.283 µM in [17]. In experiment [18], this compound displayed a TGI of 0.513 µM.
Consider `Clc1cc(Br)c2c3c(c(Br)cc(Cl)c13)C(Br)=C2Br`, for which the TGI is more than 100 µM in experiment [1]; 58.9 µM in experiment [2]; 37.6 µM in experiment [4]; 90.9 µM in experiment [5]; 58.1 µM in [6]; 36.3 µM in experiment [8]. For the same compound, the TGI in experiment [9] was 61.5 µM; in experiment [10], 70.4 µM; in experiment [11] it was more than 100 µM; in experiment [12] it was more than 100 µM; in experiment [19] it was 71.7 µM; in [13] it was more than 100 µM. Besides, the TGI in [15] is more than 100 µM; in experiment [16] it was more than 100 µM; in experiment [20], 38.8 µM; in experiment [17] it was more than 100 µM; in [18] it was more than 100 µM.
For `COc1cc(N(Cc2ccc3nc(OC)c(OC)nc3c2)Cc2ccc3nc(OC)c(OC)nc3c2)cc(OC)c1OC`, the TGI in [1], in [2], in experiment [3], in [4], in experiment [5] and in experiment [6] was more than 50 µM in each case. Besides, the TGI is 41.6 µM in experiment [7]; more than 50 µM in experiment [8]; more than 50 µM in experiment [9]; more than 50 µM in experiment [10]; more than 50 µM in experiment [11]; more than 50 µM in experiment [12]. Also, the TGI in experiment [19] was 15.6 µM; in [13], more than 50 µM; in experiment [14], more than 50 µM; in [16], more than 50 µM; in experiment [20] it was more than 50 µM; in [17], more than 50 µM. Further, in [18], the TGI was more than 50 µM.
For `COC1CC(NC(=O)C(F)(F)F)C(OC(C)=O)C(C)O1` (stereo unspecified), the TGI in [1], in experiment [2], in experiment [3], in experiment [4], in experiment [5] and in experiment [6] was more than 100 µM in each case. Besides, the TGI in [7], in experiment [8], in experiment [9], in [10], in experiment [11] and in [12] was more than 100 µM in each case. The TGI in experiment [19], in experiment [13], in experiment [14], in experiment [16], in experiment [20] and in [17] was more than 100 µM each time. Besides, the TGI in experiment [18] is more than 100 µM.
On to `CC(=O)O[C@H]1C(=O)[C@@]2(C)[C@H]([C@H](OC(=O)c3ccccc3)[C@]3(O)C[C@H](OC(=O)[C@H](O)[C@@H](NC(=O)C(C)(C)C)c4ccccc4)C(C)=C1C3(C)C)[C@]1(OC(C)=O)CO[C@@H]1C[C@@H]2O`, for which the TGI is more than 10 µM in experiment [1]; more than 10 µM in experiment [2]; more than 10 µM in experiment [3]; more than 10 µM in experiment [4]; 0.839 µM in experiment [5]; more than 2.58 µM in experiment [6]. Besides, the TGI was 2.64 µM in [7]; more than 10 µM in [8]; more than 10 µM in [9]; more than 10 µM in [10]; more than 10 µM in experiment [11]; more than 4.71 µM in experiment [12]. For the same compound, the TGI in experiment [19] was 2.19 µM; in experiment [13] it was more than 10 µM; in experiment [14] it was 0.251 µM; in experiment [16], more than 10 µM; in experiment [20] it was 0.105 µM; in [17] it was more than 10 µM. The same compound gave a TGI in [18] of 0.034 µM.
In the case of `Nc1nc(Nc2ccccc2)sc1C(=O)c1cccs1`, the TGI in experiment [1] was determined as 40.6 µM; in experiment [2], 37 µM; in experiment [3], 15.9 µM; in experiment [4], 27.2 µM; in experiment [5], 30.8 µM; in experiment [6], 11.2 µM. The TGI is 20.2 µM in experiment [7]; more than 69.8 µM in [8]; 18.2 µM in experiment [9]; 46.6 µM in experiment [10]; 31.8 µM in experiment [11]; 36.2 µM in experiment [12]. The TGI in experiment [13] is 24.2 µM; in experiment [14] it was 22.7 µM; in experiment [15], 38.8 µM; in experiment [16], 37.7 µM; in [20], 25.9 µM; in experiment [17], 14.9 µM. In addition, in experiment [18], the TGI came to 29.4 µM.
As to `Cc1ccc2[nH]c3c(c2c1)C1CCC(C(C)(C)C)CC1C1C(=O)N(c2ccc4c(c2)OCO4)C(=O)C31` (stereo unspecified), the TGI in experiment [1] was 3.62 µM; in experiment [2], 14.7 µM; in experiment [3], 22.9 µM; in experiment [4], 16.5 µM; in experiment [5], 9.88 µM; in experiment [6], 3.73 µM. Also, the TGI in [7] was found to be 4.11 µM; in experiment [8] it was 3.63 µM; in experiment [9], 16.2 µM; in [10], 5.04 µM; in experiment [11] it was 10.1 µM; in [12], 17.2 µM. Further, the TGI in experiment [13] turned out to be 12.4 µM; in experiment [14], 12.5 µM; in experiment [15], 3.48 µM; in [16], 7.95 µM; in [20], 7.18 µM; in experiment [17] it was 19 µM. This compound had a TGI in experiment [18] of 20.5 µM.
